Measured values: ChEMBL document CHEMBL1127889 (Bioorg Med Chem Lett, 1994)

Key:
[1] = molecular target: T1, Endothelin-converting enzyme 1 (Bos taurus, UniProt P42891); experiment: Inhibition of Endothelin-converting enzyme (ECE) from microsomal fractions of bovine cultured endothelial cells; type: cell-based, Endothelial cell
T1 sequence (P42891 whole entry): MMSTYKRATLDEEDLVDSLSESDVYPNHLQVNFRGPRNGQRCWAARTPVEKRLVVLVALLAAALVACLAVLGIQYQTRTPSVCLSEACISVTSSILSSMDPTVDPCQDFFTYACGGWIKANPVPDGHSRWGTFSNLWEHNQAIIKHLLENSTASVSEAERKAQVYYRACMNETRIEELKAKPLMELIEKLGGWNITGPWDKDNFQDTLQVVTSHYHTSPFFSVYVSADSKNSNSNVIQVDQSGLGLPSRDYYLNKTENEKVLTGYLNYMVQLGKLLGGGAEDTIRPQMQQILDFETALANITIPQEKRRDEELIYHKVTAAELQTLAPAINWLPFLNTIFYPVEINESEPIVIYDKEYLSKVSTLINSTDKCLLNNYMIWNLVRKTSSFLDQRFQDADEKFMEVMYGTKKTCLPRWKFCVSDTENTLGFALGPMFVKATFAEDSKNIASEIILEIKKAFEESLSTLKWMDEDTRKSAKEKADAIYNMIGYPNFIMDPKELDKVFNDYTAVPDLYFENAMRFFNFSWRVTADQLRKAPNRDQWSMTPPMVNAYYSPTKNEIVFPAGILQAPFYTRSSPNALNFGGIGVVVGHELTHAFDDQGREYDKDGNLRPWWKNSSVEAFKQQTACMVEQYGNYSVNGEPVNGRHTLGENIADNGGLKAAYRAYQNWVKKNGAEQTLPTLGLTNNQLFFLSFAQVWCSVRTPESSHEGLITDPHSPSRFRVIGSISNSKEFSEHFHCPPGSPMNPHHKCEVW

Neprilysin = molecular target: T2, Neprilysin (Rattus norvegicus, UniProt P07861); experiment: Inhibitory activity against neutral endopeptidase (NEP)prepared from microsomal fractions of rat small intestine
T2 sequence (P07861 whole entry): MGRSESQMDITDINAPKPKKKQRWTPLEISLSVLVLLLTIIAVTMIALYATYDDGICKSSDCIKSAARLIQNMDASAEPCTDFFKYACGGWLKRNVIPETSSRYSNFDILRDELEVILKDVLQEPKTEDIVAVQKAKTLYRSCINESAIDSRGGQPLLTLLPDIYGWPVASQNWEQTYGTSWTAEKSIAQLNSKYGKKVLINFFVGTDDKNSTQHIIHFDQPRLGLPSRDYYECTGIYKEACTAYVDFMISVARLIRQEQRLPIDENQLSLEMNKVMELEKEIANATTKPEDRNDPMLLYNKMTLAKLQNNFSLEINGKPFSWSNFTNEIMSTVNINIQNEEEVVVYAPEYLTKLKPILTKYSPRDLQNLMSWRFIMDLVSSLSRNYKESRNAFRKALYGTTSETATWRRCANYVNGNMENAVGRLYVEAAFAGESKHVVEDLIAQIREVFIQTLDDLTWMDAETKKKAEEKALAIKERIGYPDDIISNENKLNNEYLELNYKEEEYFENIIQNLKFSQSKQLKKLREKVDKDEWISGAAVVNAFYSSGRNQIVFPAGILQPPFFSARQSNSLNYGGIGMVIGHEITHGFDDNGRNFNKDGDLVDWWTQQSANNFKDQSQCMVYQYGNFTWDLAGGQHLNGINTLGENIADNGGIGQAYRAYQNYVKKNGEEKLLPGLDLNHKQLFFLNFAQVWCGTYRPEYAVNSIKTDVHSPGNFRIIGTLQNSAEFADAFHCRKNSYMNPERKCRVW

[2] = Selectivity ratio against ECE/NEP
[3] = molecular target: T3, Endothelin-converting enzyme 1 (Bos taurus) (UniProt P42891); experiment: Inhibitory activity against Endothelin-converting enzyme (ECE) prepared from the microsomal fractions of bovine cultured endothelial cells at a concentration of 100 uM; type: cell-based; conditions: Endothelial cell
T3 sequence (whole entry): T1 sequence (P42891 whole entry)

[4] = molecular target: T3, Endothelin-converting enzyme 1 (Bos taurus); experiment: Inhibitory activity against Endothelin converting enzyme (ECE) prepared from the microsomal fractions of bovine cultured endothelial cells at a concentration of 100 uM; type: cell-based; conditions: Endothelial cell

SMILES	IC50 [1]	IC50 (Neprilysin)	Ratio [2]	inhibition [3]	inhibition [4]
CC(C)C[C@H](NP(=O)(O)O)C(=O)N[C@@H](Cc1cccc2ccccc12)C(=O)O	7400 nM	–	–	–	–
CCCC(N[C@@H](CC(C)C)C(=O)N[C@@H](Cc1c[nH]c2ccccc12)C(=O)O)P(=O)(O)O (stereo partly specified)	15000 nM	550 nM	37	–	–
CC(C)[C@H](NP(=O)(O)O)C(=O)N[C@@H](CC(N)=O)C(=O)O	–	–	–	14%	–
CC(C)C[C@H](NCP(=O)(O)O)C(=O)N[C@@H](Cc1c[nH]c2ccccc12)C(=O)O	3400 nM	24 nM	7.1	–	–
CC[C@@H](C)[C@H](NP(=O)(O)O)C(=O)N[C@@H](Cc1c[nH]c2ccccc12)C(=O)O	2800 nM	–	–	–	–
CC(C)C[C@H](NP(=O)(O)OC1O[C@@H](C)[C@H](O)[C@@H](O)[C@H]1O)C(=O)N[C@@H](Cc1c[nH]c2ccccc12)C(=O)O (single isomer, unassigned) [PHOSPHORAMIDON]	–	4.2 nM	–	–	–

Results, then the compound that gave them:

IC50 [1]	IC50 (Neprilysin)	Ratio [2]	inhibition [3]	inhibition [4]	SMILES
1500 nM	–	–	–	–	CCCC[C@H](NP(=O)(O)O)C(=O)N[C@@H](Cc1c[nH]c2ccccc12)C(=O)O
3000 nM	130 nM	43	42%	–	CC(C)C[C@H](NC(CCc1ccc(O)cc1)P(=O)(O)O)C(=O)N[C@@H](Cc1c[nH]c2ccccc12)C(=O)O (stereo partly specified)
7100 nM	1100 nM	150	38%	–	CC(C)C[C@H](NC(CCCc1ccccc1)P(=O)(O)O)C(=O)N[C@@H](Cc1c[nH]c2ccccc12)C(=O)O (stereo partly specified)
1900 nM	560 nM	290	–	–	CC(C)C[C@H](NC(CCc1c[nH]c2ccccc12)P(=O)(O)O)C(=O)N[C@@H](Cc1c[nH]c2ccccc12)C(=O)O (stereo partly specified)
260 nM	140 nM	540	–	31%	CC(C)C[C@H](NC(CCc1cccc2ccccc12)P(=O)(O)O)C(=O)N[C@@H](Cc1c[nH]c2ccccc12)C(=O)O (stereo partly specified)
1100 nM	130 nM	120	33%	–	CC(C)C[C@H](NC(CCc1ccccc1)P(=O)(O)O)C(=O)N[C@@H](Cc1c[nH]c2ccccc12)C(=O)O (stereo partly specified)
960 nM	–	–	–	–	CC(C)C[C@H](NP(=O)(O)O)C(=O)N[C@@H](Cc1c[nH]c2ccccc12)C(=O)O
